Like-named read-outs stand apart in the source and are kept apart here.
What was measured:
SJSA-1 cells = experiment: Protocol B: SJSA-1 CellTiter-Glo luminescent cell viability assay
SN40R2 cells = experiment: Protocol B: SN40R2 CellTiter-Glo luminescent cell viability assay; details: for inhibition at 10 µM: read-out: SN40R2 % inhibition at 10; for IC50: read-out: SN40R2 IC50 (μM) (Protocol B)
Protocol: Protocol B: SJSA-1 and SN40R2 Assays
The CellTiter-Glo® Luminescent Cell Viability Assay is a homogeneous method to determine the number of viable cells in culture based on quantitation of the ATP present, which signals the presence of metabolically active cells. […] 100 μl of CTG reagent (Promega #G7573) was added to all wells and luminescence was measured on the topcount. The EC50 values were determined from a sigmoidal 4 parameter curve fit using XLfit in conjunction with Activity Base (IDBS; Guildford, Surrey, UK).

[1] = Homo sapiens, SJSA-1, read-out: SJSA1 IC50 (μM), Protocol B, SJSA-1
[2] = read-out: SJSA1 IC50, Protocol B, SJSA-1
[3] = Homo sapiens, SJSA-1, read-out: SJSA1 IC50 (μM) (Protocol B), SJSA-1, Protocol B

CC[C@@](O)(c1cc(F)c2c(c1)C(=O)N(Cc1ncc(Cl)cn1)[C@@]2(OCCO)c1ccc(Cl)cc1)C1(F)CCOCC1 [Example 501, (3R)-3-(4-chlorophenyl)-2-[(5-chloropyrimidin-2-yl)methyl]-4-fluoro-6-[(1R)-1-(4-fluorooxan-4-yl)-1-hydroxypropyl]-3-(2-hydroxyethoxy)-2,3-dihydro-1H-isoindol-1-one]
IC50 (SJSA-1 cells; [1]): 0.022 µM
inhibition at 3 µM (SN40R2 cells; read-out: SN40R2 % inhibition at 3): 8%

CCC(O)(c1cc(F)c2c(c1)C(=O)N(Cc1ccc(C#N)cn1)[C@@]2(OCC1(F)COC1)c1ccc(Cl)cc1)c1cn(C)cn1 (stereo partly drawn) [Example 435, 6-{[(1R)-1-(4-chlorophenyl)-7-fluoro-1-[(3-fluorooxetan-3-yl)methoxy]-5-[1-hydroxy-1-(1-methyl-1H-imidazol-4-yl)propyl]-3-oxo-2,3-dihydro-1H-isoindol-2-yl]methyl}pyridine-3-carbonitrile]
IC50 (SJSA-1 cells; [1]): 0.015 µM
inhibition at 10 µM (SN40R2 cells): 0%

[2H]C([2H])(O)C1(C([2H])([2H])O[C@]2(c3ccc(Cl)cc3)c3c(F)cc(C(O)(CC)c4cn(C)cn4)cc3C(=O)N2Cc2ccc(C#N)cn2)CC1 (stereo partly drawn) [Example 439, 6-{[(1R)-1-(4-chlorophenyl)-7-fluoro-1-({1-[hydroxy(^2H2)methyl]cyclopropyl}(^2H2)methoxy)-5-[1-hydroxy-1-(1-methyl-1H-imidazol-4-yl)propyl]-3-oxo-2,3-dihydro-1H-isoindol-2-yl]methyl}pyridine-3-carbonitrile]
IC50 (SJSA-1 cells; [2]): 0.03 µM
inhibition at 10 µM (SN40R2 cells): 3%

CCC(O)(c1cc(F)c2c(c1)C(=O)N(Cc1ncc(C#N)cn1)[C@@]2(O[C@H]1CCOC1)c1ccc(Cl)cc1)c1ccn(C)n1 (stereo partly drawn) [Example 490, 2-{[(1R)-1-(4-chlorophenyl)-7-fluoro-5-[1-hydroxy-1-(1-methyl-1H-pyrazol-3-yl)propyl]-3-oxo-1-[(3S)-oxolan-3-yloxy]-2,3-dihydro-1H-isoindol-2-yl]methyl}pyrimidine-5-carbonitrile]
IC50 (SJSA-1 cells; [2]): 0.27 µM
inhibition at 10 µM (SN40R2 cells): 0%

CCC(O)(c1cc(F)c2c(c1)C(=O)N(Cc1ncc(Cl)cn1)[C@@]2(O[C@H]1C[C@@H](O)C1)c1ccc(Cl)cc1)c1cn(C)cn1 (stereo partly drawn) [Example 464, (3R)-3-(4-chlorophenyl)-2-[(5-chloropyrimidin-2-yl)methyl]-4-fluoro-6-[1-hydroxy-1-(1-methyl-1H-imidazol-4-yl)propyl]-3-[cis-3-hydroxycyclobutoxy]-2,3-dihydro-1H-isoindol-1-one]
IC50 (SJSA-1 cells; [1]): 0.18 µM
inhibition at 10 µM (SN40R2 cells): 46%

CO[C@]1(c2ccc(Cl)cc2)c2c(F)cc(C(C)(O)c3ncc[nH]3)cc2C(=O)N1Cc1ccc(Cl)cn1 (single isomer, unassigned) [Example 163]
IC50 (SJSA-1 cells; [3]): 3.1 µM
IC50 (SN40R2 cells): 13 µM

CO[C@]1(c2ccc(Cl)cc2)c2c(F)cc(C(C)(O)C3CN(C)C3)cc2C(=O)N1Cc1ccc(Cl)cn1 (stereo partly drawn) [Example 307, (3R)-3-(4-chlorophenyl)-2-[(5-chloropyridin-2-yl)methyl]-4-fluoro-6-[1-hydroxy-1-(1-methylazetidin-3-yl)ethyl]-3-methoxy-2,3-dihydro-1H-isoindol-1-one]
IC50 (SJSA-1 cells; [3]): 1.9 µM
IC50 (SN40R2 cells): 11 µM

Cn1cc(C(C)(O)c2cc(F)c3c(c2)C(=O)N(Cc2ccc(Cl)cn2)[C@@]3(OCC2(CO)CC2)c2ccc(Cl)cc2)cn1 (stereo partly drawn) [Example 346, (3R)-3-(4-chlorophenyl)-2-[(5-chloropyridin-2-yl)methyl]-4-fluoro-6-[1-hydroxy-1-(1-methyl-1H-pyrazol-4-yl)ethyl]-3-{[1-(hydroxymethyl)cyclopropyl]methoxy}-2,3-dihydro-1H-isoindol-1-one]
IC50 (SJSA-1 cells; [3]): 0.012 µM
IC50 (SN40R2 cells): 12 µM

CCC(O)(c1cc(F)c2c(c1)C(=O)N(Cc1ncc(C#N)cn1)[C@@]2(OC[C@@H](C)O)c1ccc(Cl)cc1)[C@H]1CC[C@H](O)CC1 (stereo partly drawn) [Example 512, 2-{[(1R)-1-(4-chlorophenyl)-7-fluoro-5-{1-hydroxy-1-[trans-4-hydroxycyclohexyl]propyl}-1-[(2R)-2-hydroxypropoxy]-3-oxo-2,3-dihydro-1H-isoindol-2-yl]methyl}pyrimidine-5-carbonitrile]
IC50 (SJSA-1 cells; [1]): 0.025 µM
inhibition at 10 µM (SN40R2 cells): 5%

CCC(O)(CN1CCN(C)CC1)c1cc(F)c2c(c1)C(=O)N(Cc1ncc(Cl)cn1)[C@@]2(O[C@H]1CCOC1)c1ccc(Cl)cc1 (single isomer, unassigned) [Example 522]
IC50 (SJSA-1 cells; [2]): 0.048 µM
inhibition at 10 µM (SN40R2 cells): 24%

CCC(O)(c1cc(F)c2c(c1)C(=O)N(Cc1ccc(C#N)cn1)[C@@]2(OCCO)c1ccc(Cl)cc1)c1cscn1 (single isomer, unassigned) [Example 333]
IC50 (SJSA-1 cells; [1]): 0.22 µM
inhibition at 10 µM (SN40R2 cells): 5%

[2H]C([2H])(O)C1(C([2H])([2H])O[C@]2(c3ccc(Cl)cc3)c3c(F)cc(C(C)(O)CC)cc3C(=O)N2Cc2ncc(C#N)cn2)CC1 (single isomer, unassigned) [Example 576]
IC50 (SJSA-1 cells; [1]): 0.14 µM
inhibition at 10 µM (SN40R2 cells): 5%

CC(O)(c1cc(F)c2c(c1)C(=O)N(Cc1ncc(Cl)cn1)[C@@]2(OCCO)c1ccc(Cl)cc1)C1(F)CCOCC1 (stereo partly drawn) [Example 578, (3R)-3-(4-chlorophenyl)-2-[(5-chloropyrimidin-2-yl)methyl]-4-fluoro-6-[1-(4-fluorooxan-4-yl)-1-hydroxyethyl]-3-(2-hydroxyethoxy)-2,3-dihydro-1H-isoindol-1-one]
IC50 (SJSA-1 cells; [1]): 0.12 µM
inhibition at 10 µM (SN40R2 cells): 4%

CCC(O)(CN1CCN(C)CC1)c1cc(F)c2c(c1)C(=O)N(Cc1ncc(Cl)cn1)[C@@]2(OCC1(C#N)CC1)c1ccc(Cl)cc1 (single isomer, unassigned) [Example 534]
IC50 (SJSA-1 cells; [2]): 0.7 µM
inhibition at 10 µM (SN40R2 cells): 44%

Cn1cnc(C(C)(O)c2cc(F)c3c(c2)C(=O)N(Cc2ncc(C#N)cn2)[C@@]3(OCC2(F)COC2)c2ccc(Cl)cc2)c1 (stereo partly drawn) [Example 468, 2-{[(1R)-1-(4-chlorophenyl)-7-fluoro-1-[(3-fluorooxetan-3-yl)methoxy]-5-[1-hydroxy-1-(1-methyl-1H-imidazol-4-yl)ethyl]-3-oxo-2,3-dihydro-1H-isoindol-2-yl]methyl}pyrimidine-5-carbonitrile]
IC50 (SJSA-1 cells; [1]): 0.48 µM
inhibition at 10 µM (SN40R2 cells): 2%

CO[C@]1(c2ccc(Cl)cc2)c2c(F)cc(C(C)(O)c3cn(C)c(C)n3)cc2C(=O)N1Cc1ccc(Cl)cn1 (stereo partly drawn) [Example 162, (3R)-3-(4-Chlorophenyl)-2-[(5-chloropyridin-2-yl)methyl]-6-[1-(1,2-dimethyl-1H-imidazol-4-yl)-1-hydroxyethyl]-4-fluoro-3-methoxy-2,3-dihydro-1H-isoindol-1-one]
IC50 (SJSA-1 cells; read-out: SJSA1 IC50 (μM) (Protocol B), SJSA-1, Protocol B): 0.22 µM
IC50 (SN40R2 cells): 13 µM

CC[C@@](O)(c1cc(F)c2c(c1)C(=O)N(Cc1ncc(C#N)cn1)[C@@]2(OCCO)c1ccc(Cl)cc1)C1(F)CCOCC1 [Example 509, 2-{[(1R)-1-(4-chlorophenyl)-7-fluoro-5-[(1R)-1-(4-fluorooxan-4-yl)-1-hydroxypropyl]-1-(2-hydroxyethoxy)-3-oxo-2,3-dihydro-1H-isoindol-2-yl]methyl}pyrimidine-5-carbonitrile]
IC50 (SJSA-1 cells; [1]): 0.042 µM
inhibition at 10 µM (SN40R2 cells): 6%

[2H]C([2H])(O)C1(C([2H])([2H])O[C@]2(c3ccc(Cl)cc3)c3c(F)cc(C(C)(C)C4(F)CCOCC4)cc3C(=O)N2Cc2ncc(Cl)cn2)CC1 [Example 447, (3R)-3-(4-Chlorophenyl)-2-[(5-chloropyrimidin-2-yl)methyl]-4-fluoro-6-[1-(4-fluorooxan-4-yl)-1-hydroxyethyl]-3-({1-[hydroxy(^2H2)methyl]cyclopropyl}(^2H2)methoxy)-2,3-dihydro-1H-isoindol-1-one]
IC50 (SJSA-1 cells; [1]): 0.011 µM
inhibition at 10 µM (SN40R2 cells): 10%
